Values of other authors as cited in patent US9789071B2 (G2B Pharma Inc., priority 2012, dated 2017).

Tests used:
[1] = IM injection
[2] = dogs
[3] = dogs; remark: listed apart in the source
[4] = normal human subjects, IM epinephrine injection
[5] = oral route
[6] = sublingual doses 5 to 40 mg, as the bitartrate salt
[7] = nasal mucosa, needleless high-pressure injection

CNC[C@H](O)c1ccc(O)c(O)c1 [epinephrine]
onset of action (Tmax) [1]: 3 to 8 min | time peak systolic pressure was maintained [2]: about 180 seconds | peak systolic pressure ([2]; at 60 seconds): 200 % of baseline | peak epinephrine levels in the blood [2, 7]: ~20 ng/mL | time of peak (Tmax) epinephrine levels in the blood [2, 7]: 0.25 min | greatest epinephrine plasma concentrations ([3]; CPR, 7.5 mg/kg/nostril epinephrine after 0.25 mg/kg/nostril intranasal phentolamine, 1% taurodeoxycholic acid): ~1,400 ng/mL | absolute bioavailability ([3]; intranasal, with 1% taurodeoxycholic acid): quite low | Tmax [4]: 69 ± 19 min | bioavailability [5]: negligible | plasma concentrations [6]: equivalent to IM injection
